Test results published in patent US11643421B2, “Process for the preparation of tricyclic PI3K inhibitor compounds and methods for using the same for the treatment of cancer” (priority 2015, dated 2023).

Experiments:
[1] = Plasma protein binding (PPB %); type: in vitro ADME; settings: dog
Protocol: (§1) The hepatocyte stability of compound IIIat was evaluated across preclinical species. Certain in vivo pharmacokinetic parameters were also evaluated. […] Male Sprague-Dawley rats, female CD-1 mice, male cynomolgus monkeys and beagle dogs were dosed intravenously with 1 mg/kg of compound IIIat prepared in 60% PEG400/10% Ethanol. Compound IIIat was administered orally (PO) at the indicated dose in 0.5% methylcellulose with 0.2% Tween 80 (MCT).

CK1_gamma3 = CK1_gamma3 (Homo sapiens, UniProt Q9Y6M4); assay: biochemical; settings: read-out: % inhib
Chain of CK1_gamma3 (Q9Y6M4 whole entry): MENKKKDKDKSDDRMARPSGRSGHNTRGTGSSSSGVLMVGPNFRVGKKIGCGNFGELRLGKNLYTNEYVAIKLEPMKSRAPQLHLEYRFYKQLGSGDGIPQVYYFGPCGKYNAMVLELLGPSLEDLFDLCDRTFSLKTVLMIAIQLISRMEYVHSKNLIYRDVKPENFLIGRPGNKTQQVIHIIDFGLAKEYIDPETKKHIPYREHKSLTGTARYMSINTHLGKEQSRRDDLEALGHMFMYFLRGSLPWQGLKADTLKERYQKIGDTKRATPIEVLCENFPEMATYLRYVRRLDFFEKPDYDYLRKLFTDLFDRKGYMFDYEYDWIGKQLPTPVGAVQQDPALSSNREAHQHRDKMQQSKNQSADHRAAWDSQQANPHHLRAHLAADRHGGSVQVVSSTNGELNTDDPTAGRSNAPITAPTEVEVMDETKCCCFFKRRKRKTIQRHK

MST2 = MST2 (Homo sapiens, UniProt Q13188); assay: biochemical; settings: read-out: % inhib
Chain of MST2 (Q13188 whole entry, species assumed): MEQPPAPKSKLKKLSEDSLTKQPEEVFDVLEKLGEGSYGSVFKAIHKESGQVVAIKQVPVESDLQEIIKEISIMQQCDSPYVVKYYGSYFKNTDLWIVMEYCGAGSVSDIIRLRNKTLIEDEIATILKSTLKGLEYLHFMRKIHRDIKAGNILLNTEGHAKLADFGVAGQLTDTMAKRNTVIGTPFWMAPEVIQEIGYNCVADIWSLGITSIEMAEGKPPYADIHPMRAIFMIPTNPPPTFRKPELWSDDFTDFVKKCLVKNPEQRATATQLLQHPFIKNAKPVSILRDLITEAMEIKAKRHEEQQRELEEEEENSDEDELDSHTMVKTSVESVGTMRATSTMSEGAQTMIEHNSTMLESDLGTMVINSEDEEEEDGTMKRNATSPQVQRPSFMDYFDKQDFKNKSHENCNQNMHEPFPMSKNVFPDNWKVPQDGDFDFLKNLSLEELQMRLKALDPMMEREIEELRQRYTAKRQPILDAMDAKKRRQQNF

Fyn = Fyn (Homo sapiens, UniProt P06241); assay: biochemical; settings: read-out: % inhib
Chain of Fyn (P06241 whole entry): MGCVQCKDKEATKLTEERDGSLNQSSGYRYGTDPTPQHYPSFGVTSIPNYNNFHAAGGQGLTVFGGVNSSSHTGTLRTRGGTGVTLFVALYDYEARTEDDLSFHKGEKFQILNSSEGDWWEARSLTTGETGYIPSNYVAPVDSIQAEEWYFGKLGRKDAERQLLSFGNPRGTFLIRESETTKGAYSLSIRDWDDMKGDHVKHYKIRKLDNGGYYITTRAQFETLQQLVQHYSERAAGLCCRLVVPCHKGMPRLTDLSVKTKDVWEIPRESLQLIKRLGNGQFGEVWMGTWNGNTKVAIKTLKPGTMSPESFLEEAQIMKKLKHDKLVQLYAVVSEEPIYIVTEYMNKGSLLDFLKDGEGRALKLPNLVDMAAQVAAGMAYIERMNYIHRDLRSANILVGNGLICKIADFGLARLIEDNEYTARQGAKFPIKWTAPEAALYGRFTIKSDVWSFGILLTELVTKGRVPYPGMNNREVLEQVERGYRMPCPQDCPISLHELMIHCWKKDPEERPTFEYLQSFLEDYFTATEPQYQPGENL

[2] = In vivo pharmacokinetics IV and PO; set-up: species or system male cynomolgus monkeys; settings: Cyno
Protocol: as §1

[3] = Plasma protein binding (PPB %); type: in vitro ADME, cynomolgus monkeys; settings: cynomolgus monkey
Protocol: as §1

CHK1 = CHK1 (Homo sapiens, UniProt O14757); assay: biochemical; settings: read-out: % inhib
Chain of CHK1 (O14757 whole entry, species assumed): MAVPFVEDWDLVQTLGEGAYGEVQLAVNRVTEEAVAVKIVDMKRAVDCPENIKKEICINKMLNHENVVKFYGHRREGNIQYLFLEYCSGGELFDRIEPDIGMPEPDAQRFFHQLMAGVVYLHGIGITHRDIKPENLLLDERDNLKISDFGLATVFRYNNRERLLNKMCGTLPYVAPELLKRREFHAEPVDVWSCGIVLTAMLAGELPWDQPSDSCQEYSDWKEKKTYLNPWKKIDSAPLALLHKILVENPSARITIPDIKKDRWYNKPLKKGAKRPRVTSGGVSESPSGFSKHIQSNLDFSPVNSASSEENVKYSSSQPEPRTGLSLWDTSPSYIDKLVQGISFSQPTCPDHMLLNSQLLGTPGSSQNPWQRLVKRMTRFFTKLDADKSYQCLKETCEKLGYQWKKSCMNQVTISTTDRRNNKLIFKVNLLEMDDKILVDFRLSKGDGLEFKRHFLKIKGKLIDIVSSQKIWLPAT

MEK1 = MEK1 (Homo sapiens, UniProt Q02750); assay: biochemical; settings: read-out: % inhib
Chain of MEK1 (Q02750 whole entry): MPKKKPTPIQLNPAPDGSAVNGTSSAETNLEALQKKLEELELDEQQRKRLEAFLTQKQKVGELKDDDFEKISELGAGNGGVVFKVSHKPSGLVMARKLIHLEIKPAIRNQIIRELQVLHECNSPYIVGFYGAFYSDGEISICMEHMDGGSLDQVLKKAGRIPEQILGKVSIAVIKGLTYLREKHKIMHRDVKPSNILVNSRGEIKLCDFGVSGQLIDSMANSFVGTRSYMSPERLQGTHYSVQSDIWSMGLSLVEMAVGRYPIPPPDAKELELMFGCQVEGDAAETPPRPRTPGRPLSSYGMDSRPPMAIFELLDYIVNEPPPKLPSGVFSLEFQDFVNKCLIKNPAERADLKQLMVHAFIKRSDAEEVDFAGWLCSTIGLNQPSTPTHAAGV

GS2 intracranial tumors = assay: Efficacy in GS2 intracranial model; type: in vivo, mice; settings: 15 mg/kg PO daily for 4 weeks, MRI, p<0.01
From the text: These U87 and GS2 models are PTEN-deficient, with the GS2 cell line presenting a copy number loss at the PTEN locus (Gunther H S, et al.) with no detectable PTEN protein by western blot (Carlson […], Schroeder […]., “Establishment, maintenance and in vitro and in vivo applications of primary human glioblastoma multiforme (GBM) xenograft models for translational biology studies and drug discovery”, Curr Protoc Pharmacol. 2011; Chapter 14: Unit 14 16). The identity of the two cell lines was confirmed by STR profiling (DNA Diagnostics Center) using cells within 5 passages of those utilized for in vivo studies. […] The differences between treatment groups were evaluated using Student's t test in Prism (Prism 5, GraphPad). […] Body temperature was continuously monitored using a rectal probe and was maintained at 37° C. by a heated-air flow system regulated by in-house LabVIEW controller software. A T2-weighted fast spin echo, multi-slice (FSEMS) sequence was used to detect lesions by MRI. 12-20 axial 0.5-0.8 mm-thick slices were acquired with a 20×20 mm field of view (FOV), and 128×128 matrix, zero-filled to 256×256 mages. TR=3500-4000 ms, TE=9-10 ms, ETL=8, k-zero=4, NEX=8. Tumor volumes were calculated from the T2-weighted FSEMS images using an intensity threshold based region growing tool in MRVision software. […]

high-grade gliomas = assay: Phase I study, FDG-PET tumor response; type: in vivo, human; settings: 27 patients who underwent FDG-PET imaging
Protocol: Tumor response was determined by either an assessment of FDG-PET or by Response Assessment in Neuro-Oncology (RANO).
The outcome measure for this objective was based on the maximum standard uptake value (SUVmax) of up to five lesions. The tumor regions of interest (ROIs) were identified for each patient on pretreatment PET imaging and corresponded to a subset of the target lesions used for analysis of the patient's pretreatment tumor assessment scans. […] Specifically, the SUVmax of each ROI on the on-treatment scans was compared with its SUVmax on the corresponding pretreatment scan and the percent change was determined. In the event of more than one ROI, the overall percent change in SUVmax was the arithmetic mean of the percent changes in SUVmax for each of the ROIs (mSUVmax). PET response is defined as follows. Progressive disease (PET-PD): percent increase of >20% in mSUVmax or the development of a new lesion with an SUVmax above background and not explained by another cause (e.g., infection). Stable disease (PET-SD): percent increase of ≤20% in mSUVmax or a percent decrease of ≤20% in mSUVmax. Partial response (PET-PR): percent decrease of >20% in mSUVmax. […]
Reduction in ^18F-FDG uptake measured by PET is indicative of reduced glucose metabolism activity, a likely PD response of PI3K pathway inhibition.

CDK5/p25 = CDK5/p25 (Homo sapiens, UniProt Q00535); assay: biochemical; settings: read-out: % inhib
Chain of CDK5/p25 (Q00535 whole entry, species assumed): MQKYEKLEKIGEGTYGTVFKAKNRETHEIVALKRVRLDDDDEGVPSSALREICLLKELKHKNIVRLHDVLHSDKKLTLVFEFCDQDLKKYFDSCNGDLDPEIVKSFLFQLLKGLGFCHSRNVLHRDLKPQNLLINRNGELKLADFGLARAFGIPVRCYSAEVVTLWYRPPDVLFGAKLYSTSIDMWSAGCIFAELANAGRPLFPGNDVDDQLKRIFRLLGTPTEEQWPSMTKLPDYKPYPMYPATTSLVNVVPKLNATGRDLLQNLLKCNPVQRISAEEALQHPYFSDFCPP
Chain of CDK5/p25 (Q15078 99-307 partner limits assumed, species assumed): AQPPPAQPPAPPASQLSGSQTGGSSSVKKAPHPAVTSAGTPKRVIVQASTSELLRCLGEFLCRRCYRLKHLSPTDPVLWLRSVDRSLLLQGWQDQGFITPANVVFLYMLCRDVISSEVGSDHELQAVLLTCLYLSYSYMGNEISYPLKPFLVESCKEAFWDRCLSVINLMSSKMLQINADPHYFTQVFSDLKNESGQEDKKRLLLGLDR

pAKT [4] = assay: pAKT/total AKT in U87 MG/M xenograft tumors; type: in vivo, mice; settings: 0.5, 3, 10, 18 mg/kg, 24 days continuous dosing, 1 hour and 4 hours post dose
Protocol: The effect of compound IIIat on the pharmacodynamics (PD) marker pAKT in the U87 MG/M human glioblastoma xenograft model after 24 days of continuous dosing at dosage rates of 0.5 mg/kg, 3 mg/kg, 10 mg/kg and 18 mg/kg was evaluated. Tumors were excised from animals 1 hour and 4 hours after the last administered dose on day 24 and processed for analysis of pAKT and total AKT. The results are reported in FIG. 4 as a ratio of pAKT to total AKT wherein indicated values are the means for groups of 3 animals and error bars indicate ±standard error of the mean. Levels of pAKT^Ser473 and total AKT were measured by electrochemiluminescence using Meso Scale Discovery according to manufacturer's instructions (Gaithersburg, Md.).

pAKT [5] = assay: Modulation of pAkt in the brain of healthy mice; type: in vivo, Female CD-1 mice; settings: single oral dose 25 mg/kg
Protocol: Inhibition of the PI3K pathway was assessed in the brain of healthy mice through measurement of two markers, pAkt and pS6. […] Brains and plasma were collected at 1 and 6 hours post-dose, from 3 animals at each time point. […] For PD analysis, cell extraction buffer (Invitrogen, Camarillo, Calif.) containing 10 mM Tris pH 7.4, 100 mM NaCl, 1 mM EDTA, 1 mM EGTA, 1 mM NaF, 20 mM Na4P2O7, 2 mM Na3VO4, 1% Triton X-100, 10% glycerol, 0.1% SDS, and 0.5% deoxycholate was supplemented with phosphatase, protease inhibitors (Sigma, St. Louis, Mo.) and 1 mM PMSF and added to frozen brain biopsies. Brains were homogenized with a small pestle (Konte Glass Company, Vineland, N.J.), sonicated briefly on ice, and centrifuged at 20,000 g for 20 minutes at 4° C. Protein concentration was determined using BCA protein assay (Pierce, Rockford, Ill.). Proteins were separated by electrophoresis and transferred to NuPage nitrocellulose membranes (Invitrogen, Camarillo, Calif.). Licor Odyssey Infrared detection system (Licor, Lincoln, Nebr.) was used to assess and quantify protein expression. […] The differences in marker levels between the treated and control mice were evaluated using the Student's t-test (Prism 5, GraphPad).

MST1 = MST1 (Homo sapiens, UniProt Q13043); assay: biochemical; settings: read-out: % inhib
Chain of MST1 (Q13043 whole entry): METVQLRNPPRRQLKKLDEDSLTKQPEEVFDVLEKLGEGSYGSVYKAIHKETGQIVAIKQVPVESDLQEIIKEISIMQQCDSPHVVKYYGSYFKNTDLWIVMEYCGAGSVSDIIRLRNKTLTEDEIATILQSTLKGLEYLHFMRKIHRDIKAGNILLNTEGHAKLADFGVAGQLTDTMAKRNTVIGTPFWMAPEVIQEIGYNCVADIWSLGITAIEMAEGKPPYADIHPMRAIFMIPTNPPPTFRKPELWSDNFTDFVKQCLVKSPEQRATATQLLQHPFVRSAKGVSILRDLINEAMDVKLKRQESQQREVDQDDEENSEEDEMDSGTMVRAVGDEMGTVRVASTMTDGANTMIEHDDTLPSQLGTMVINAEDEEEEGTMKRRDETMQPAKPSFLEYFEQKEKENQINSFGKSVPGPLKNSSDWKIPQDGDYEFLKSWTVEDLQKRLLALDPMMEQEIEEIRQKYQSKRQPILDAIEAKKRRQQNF

PhK_gamma1 = PhK_gamma1 (Homo sapiens, UniProt Q16816); assay: biochemical; settings: read-out: % inhib
Chain of PhK_gamma1 (Q16816 whole entry): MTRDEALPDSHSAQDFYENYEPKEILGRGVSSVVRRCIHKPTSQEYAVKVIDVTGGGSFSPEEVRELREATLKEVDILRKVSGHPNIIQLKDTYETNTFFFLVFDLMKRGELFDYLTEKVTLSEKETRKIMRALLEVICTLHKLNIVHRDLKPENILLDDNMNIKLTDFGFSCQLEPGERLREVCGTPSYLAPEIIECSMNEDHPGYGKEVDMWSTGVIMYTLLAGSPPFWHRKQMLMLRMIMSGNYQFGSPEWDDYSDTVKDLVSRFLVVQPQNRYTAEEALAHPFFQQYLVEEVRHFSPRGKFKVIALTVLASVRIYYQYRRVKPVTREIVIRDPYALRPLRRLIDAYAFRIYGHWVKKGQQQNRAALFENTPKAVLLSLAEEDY

p4EBP1 = assay: PI3K pathway modulation in GS2 tumors, western blot; type: in vivo, mice; settings: 15 mg/kg PO daily 4 weeks
NEK2 = NEK2 (Homo sapiens, UniProt P51955); assay: biochemical; settings: read-out: % inhib
Chain of NEK2 (P51955 whole entry): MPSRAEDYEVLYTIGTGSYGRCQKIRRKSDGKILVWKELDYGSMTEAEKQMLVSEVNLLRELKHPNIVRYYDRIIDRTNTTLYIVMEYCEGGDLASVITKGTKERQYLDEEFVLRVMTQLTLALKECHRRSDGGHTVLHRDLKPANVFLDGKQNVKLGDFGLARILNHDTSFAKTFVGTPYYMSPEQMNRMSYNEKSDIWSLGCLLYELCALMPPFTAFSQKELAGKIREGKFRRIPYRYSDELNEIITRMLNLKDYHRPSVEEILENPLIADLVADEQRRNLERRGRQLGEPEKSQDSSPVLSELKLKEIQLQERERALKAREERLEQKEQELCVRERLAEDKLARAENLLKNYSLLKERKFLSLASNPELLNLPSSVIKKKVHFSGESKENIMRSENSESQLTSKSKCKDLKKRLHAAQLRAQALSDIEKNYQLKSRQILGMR

Which results are given for `CC1(C)OCCn2c1nc1c(N3CCOCC3)nc(-c3cnc(N)nc3)nc12` [GDC-0084, 5-(6,6-dimethyl-4-morpholino-8,9-dihydro-6H-[1,4]oxazino[3,4-e]purin-2-yl)pyrimidin-2-amine]?
fraction unbound [1]: 0.34; inhibition at 1 µM (CK1_gamma3): -0.2%; inhibition at 1 µM (MST2): -2%; inhibition at 1 µM (Fyn): 9%; AUC ([2]; PO 2 mg/kg in MCT): 0.11 μm·h; Cmax ([2]; PO 2 mg/kg in MCT): 0.03 μm; clearance ([2]; male, cynomolgus monkey, plasma, IV 1 mg/kg, read-out: In vivo Cl): 46 mL/min/kg; Vd ([2]; male, cynomolgus monkey, plasma, IV 1 mg/kg, read-out: Vss): 2.9 L/kg; bioavailability ([2]; male, cynomolgus monkey, plasma, PO 2 mg/kg in MCT): 6%; fraction unbound [3]: 0.25; inhibition at 1 µM (CHK1): 0.6%; inhibition at 1 µM (MEK1): -0.1%; GS2 tumors smaller than control group (GS2 intracranial tumors): ≈ 40%; patients with metabolic partial response on FDG-PET (high-grade gliomas): five; patients with metabolic partial response on FDG-PET, percent (high-grade gliomas): 18.5%; inhibition at 1 µM (CDK5/p25): 0.3%; inhibition of pAKT (pAKT/total AKT) in U87 tumors (pAKT [4]): Dose and concentration dependent inhibition of pAKT; Suppression of pAkt in brain (pAKT [5]; 1 hour post dose): 90%; Suppression of pAkt in brain (pAKT [5]; 6 hours after dosing): greater than 70%; inhibition at 1 µM (MST1): 5%; inhibition at 1 µM (PhK_gamma1): 2%; Suppression of p4EBP1 in GS2 tumors (p4EBP1; 2 hours after final administration): 43%; p4EBP1 level in GS2 tumors (p4EBP1; 8 hours post-dose): back to baseline levels; inhibition at 1 µM (NEK2): 20%
